One series concerns HEK-293 cells. Briefly: MTT cell viability assay. It is filed as cell-based. As to conditions: Homo sapiens, HEK293, 48-hour treatment. How it is done: The HEK-293 cell line was acquired from the National Cell Bank of Iran, situated at the Pasteur Institute in Tehran. These cells were propagated in Roswell Park Memorial Institute (RPMI) medium, supplemented with 10% fetal bovine serum (FBS), 100 units/mL penicillin, and 100 μg/mL streptomycin. The culture conditions maintained were a humidified incubator set at 37°C, with 5% CO2 and 95% humid air. The culture medium was replenished twice per week until the cells reached 80 - 90% confluency. Subsequently, the cells were dissociated using trypsin and subcultured for passaging and cryopreservation. All experiments were conducted using cells within the passage number range of 3 - 6. Cells were routinely tested for mycoplasma contamination using Hoechst staining. Briefly, cells were fixed and stained with Hoechst 33258 dye, which binds to DNA. Samples were then examined under a fluorescence microscope for the presence of extranuclear DNA, indicative of mycoplasma infection. All cell cultures used in this study were confirmed to be mycoplasma-negative. […] In this study, (1 × 10^4) Hek-293 cells were seeded per well in 96-well plates. […] The measurement of absorbance was performed at an optical density (OD) of 570 nm. Cell viability was assessed by comparing the absorbance values of the drug-treated cells to those of untreated control cells. […]
Background: Formazan colour is commonly taken as a measure of viable cells.

The subject of the next series is rabbit eye. Briefly: Eye irritation test (Draize test) in rabbits' eyes. How it is done:
To assess the ocular toxicity of the two compounds, crocin and nobiletin, an in vivo eye irritation test was conducted. The concentrations evaluated were strategically chosen based on the respective IC50 of each compound. Specifically, the concentrations tested included the IC50 value itself, as well as concentrations at one-half and one-quarter of the IC50 value. This approach allowed for a comprehensive evaluation of the potential eye irritation caused by varying levels of exposure to these compounds. The experimental protocol involved the preparation of stock solutions for crocin and nobiletin using DMSO as the solvent at high concentrations. These stock solutions were then diluted with an artificial tear solution to obtain the desired treatment doses for instillation into the eye conjunctiva of the test subjects. Subsequently, the team meticulously observed and recorded any occurrences of eye symptoms, focusing on the iris, cornea, and conjunctiva over periods of 1, 24, 48, and 72 hours ([18]).

The test system of the next series is TNF-α. The series can be described thus: TNF-α concentration in LPS-stimulated HEK-293 cell line. In kind it is cell-based. Conditions: HEK-293 cells, LPS 1 μg/mL, 48 hours; for TNF-α concentration, higher dose versus lower dose: crocin 68 μM, nobiletin 65.5 μM; for TNF-α concentration (anti-inflammatory effect): crocin 34 and 68 μM, nobiletin 32.75 and 65.5 μM, vs LPS group. How it is done: Figure 3. Tumor necrosis factor-alpha (TNF-α) concentration in HEK-293 cells treated with LPS (1 μg/mL) for 48 hours.

The source of these data is article PMC11742122, “Therapeutic Potential of Crocin and Nobiletin in a Mouse Model of Dry Eye Disease: Modulation of the Inflammatory Response and Protection of the Ocular Surface” (Iranian Journal of Pharmaceutical Research : IJPR, 2024).

A word on the pIC50: it is −log10 of the IC50, conventionally taken in molar units. Low readings indicate a large IC50, high ones a small IC50.

pIC50: −log10 of the molar value. Marks after values point to notes of the source that are not given here.

Compound `CC(/C=C/C=C(\C)C(=O)O[C@@H]1O[C@H](CO[C@@H]2O[C@H](CO)[C@@H](O)[C@H](O)[C@H]2O)[C@@H](O)[C@H](O)[C@H]1O)=C\C=C\C=C(C)\C=C\C=C(/C)C(=O)O[C@@H]1O[C@H](CO[C@@H]2O[C@H](CO)[C@@H](O)[C@H](O)[C@H]2O)[C@@H](O)[C@H](O)[C@H]1O` [Crocin] had a pIC50 in the series with HEK-293 cells of 3.87. Further, the highest safe concentration with rabbit eye (rabbit eye irritation test) is 34 ^a µM. In the series on rabbit eye (rabbit, in vivo), the ocular observations result is “ocular turbidity was observed, along with mild conjunctival hyperemia”. Also, in the series on TNF-α, the “TNF-α concentration, higher dose versus lower dose” value was “superior anti-inflammatory efficacy compared to their lower-dose counterparts” and the “TNF-α concentration (anti-inflammatory effect)” value is listed as “exhibited anti-inflammatory properties at all tested concentrations”.

On to `COc1ccc(-c2cc(=O)c3c(OC)c(OC)c(OC)c(OC)c3o2)cc1OC` [Nobiletin], for which, in the series with HEK-293 cells, the pIC50 was 3.88. Further, in the series with rabbit eye (rabbit, in vivo), the ocular observations entry is listed as “ocular turbidity was observed, along with mild conjunctival hyperemia”. Besides, the highest safe concentration in the series on rabbit eye (rabbit, in vivo, 72 h) is 32.75 ^a µM. Also, in the series on TNF-α, the “TNF-α concentration, higher dose versus lower dose” value is recorded as “superior anti-inflammatory efficacy compared to their lower-dose counterparts” and the “TNF-α concentration (anti-inflammatory effect)” value was “exhibited anti-inflammatory properties at all tested concentrations”.
